According to US20220125051A1, “PRE-HARVEST DESICCATION METHOD” (SYNGENTA CROP PROTECTION AG, priority 2019, published 2022):
Read-outs that look alike come from different tables or passages of the source.

Experiments:
Assay in all cases: Post-emergence efficacy, Method A
Assay type in all cases: in vivo
[1] = tested on: Digitaria sanguinalis (DIGSA); settings: Digitaria sanguinalis, post-emergence, 312 h, evaluated after 13 days
Outline: (§1)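 Plants grown 14 days in glasshouse (24/16 °C, 14 h light, 65% humidity) were sprayed with compound formulated in IF50. The spray was diluted in 0.25% or 1% Empicol ESC70 plus 1% ammonium sulphate. Damage was scored 13 days later on a 0-100 scale, where 100 is total damage.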

[2] = tested on: Euphorbia heterophylla (EPHHL); settings: Euphorbia heterophylla, post-emergence, 312 h, evaluated after 13 days
Outline: as §1

[3] = tested on: Echinochloa crus-galli (ECHCG); settings: Echinochloa crus-galli, post-emergence, 312 h, evaluated after 13 days
Outline: as §1

[4] = tested on: Lolium perenne (LOLPE); settings: Lolium perenne, post-emergence, 312 h, evaluated after 13 days
Outline: as §1

[5] = tested on: Ipomoea hederacea (IPOHE); settings: Ipomoea hederacea, post-emergence, 312 h, evaluated after 13 days
Outline: as §1

[6] = tested on: Setaria faberi (SETFA); settings: Setaria faberi, post-emergence, 312 h, evaluated after 13 days
Outline: as §1

[7] = tested on: Amaranthus palmeri (AMAPA); settings: Amaranthus palmeri, post-emergence, 312 h, evaluated after 13 days
Outline: as §1

[8] = tested on: Chenopodium album (CHEAL); settings: Chenopodium album, post-emergence, 312 h, evaluated after 13 days
Outline: as §1

[9] = tested on: Eleusine indica (ELEIN); settings: Eleusine indica, post-emergence, 312 h, evaluated after 13 days
Outline: as §1

[10] = Application rate 500 g/Ha, 100=total damage to plant, 0=no damage to plant, read-out: Control of weed species after post-emergence application, DIGSA
[11] = Application rate 500 g/Ha, 100=total damage to plant, 0=no damage to plant, read-out: Control of weed species after post-emergence application, EPHHL
[12] = Application rate 500 g/Ha, 100=total damage to plant, 0=no damage to plant, read-out: Control of weed species after post-emergence application, ECHCG
[13] = Application rate 500 g/Ha, 100=total damage to plant, 0=no damage to plant, read-out: Control of weed species after post-emergence application, LOLPE
[14] = Application rate 500 g/Ha, 100=total damage to plant, 0=no damage to plant, read-out: Control of weed species after post-emergence application, IPOHE
[15] = Application rate 500 g/Ha, 100=total damage to plant, 0=no damage to plant, read-out: Control of weed species after post-emergence application, SETFA
[16] = Application rate 500 g/Ha, 100=total damage to plant, 0=no damage to plant, read-out: Control of weed species after post-emergence application, AMAPA
[17] = Application rate 500 g/Ha, 100=total damage to plant, 0=no damage to plant, read-out: Control of weed species after post-emergence application, CHEAL
[18] = Application rate 500 g/Ha, 100=total damage to plant, 0=no damage to plant, read-out: Control of weed species after post-emergence application, ELEIN
[19] = Application Rate 500 g/Ha, Method A, read-out: Control of weed species after post-emergence application, DIGSA (100=total damage to plant; 0=no damage to plant)
[20] = Application Rate 500 g/Ha, Method A, read-out: Control of weed species after post-emergence application, EPHHL (100=total damage to plant; 0=no damage to plant)
[21] = Application Rate 500 g/Ha, Method A, read-out: Control of weed species after post-emergence application, ECHCG (100=total damage to plant; 0=no damage to plant)
[22] = Application Rate 500 g/Ha, Method A, read-out: Control of weed species after post-emergence application, LOLPE (100=total damage to plant; 0=no damage to plant)
[23] = Application Rate 500 g/Ha, Method A, read-out: Control of weed species after post-emergence application, IPOHE (100=total damage to plant; 0=no damage to plant)
[24] = Application Rate 500 g/Ha, Method A, read-out: Control of weed species after post-emergence application, SETFA (100=total damage to plant; 0=no damage to plant)
[25] = Application Rate 500 g/Ha, Method A, read-out: Control of weed species after post-emergence application, AMAPA (100=total damage to plant; 0=no damage to plant)
[26] = Application Rate 500 g/Ha, Method A, read-out: Control of weed species after post-emergence application, CHEAL (100=total damage to plant; 0=no damage to plant)
[27] = Application Rate 500 g/Ha, Method A, read-out: Control of weed species after post-emergence application, ELEIN (100=total damage to plant; 0=no damage to plant)

SMILES	pest or weed control at 500 g/ha [1, 10]	pest or weed control at 500 g/ha [2, 11]	pest or weed control at 500 g/ha [3, 12]	pest or weed control at 500 g/ha [4, 13]	pest or weed control at 500 g/ha [5, 14]	pest or weed control at 500 g/ha [6, 15]	pest or weed control at 500 g/ha [7, 16]	pest or weed control at 500 g/ha [8, 17]	pest or weed control at 500 g/ha [9, 18]	pest or weed control at 500 g/ha [1, 19]	pest or weed control at 500 g/ha [2, 20]	pest or weed control at 500 g/ha [3, 21]	pest or weed control at 500 g/ha [4, 22]	pest or weed control at 500 g/ha [5, 23]	pest or weed control at 500 g/ha [6, 24]	pest or weed control at 500 g/ha [7, 25]	pest or weed control at 500 g/ha [8, 26]	pest or weed control at 500 g/ha [9, 27]	further results
CNS(=O)(=O)c1cnc(-c2cc[n+](CCC(=O)O)nc2)nc1 [Compound A209]																			pest or weed control at 125 g/ha ([1]; Application Rate 125 g/Ha, Method A, read-out: Control of weed species after post-emergence application, DIGSA (100=total damage to plant; 0=no damage to plant)): 30%; pest or weed control at 125 g/ha ([2]; Application Rate 125 g/Ha, Method A, read-out: Control of weed species after post-emergence application, EPHHL (100=total damage to plant; 0=no damage to plant)): 0%; pest or weed control at 125 g/ha ([3]; Application Rate 125 g/Ha, Method A, read-out: Control of weed species after post-emergence application, ECHCG (100=total damage to plant; 0=no damage to plant)): 10%; pest or weed control at 125 g/ha ([4]; Application Rate 125 g/Ha, Method A, read-out: Control of weed species after post-emergence application, LOLPE (100=total damage to plant; 0=no damage to plant)): 10%; pest or weed control at 125 g/ha ([5]; Application Rate 125 g/Ha, Method A, read-out: Control of weed species after post-emergence application, IPOHE (100=total damage to plant; 0=no damage to plant)): 0%; pest or weed control at 125 g/ha ([6]; Application Rate 125 g/Ha, Method A, read-out: Control of weed species after post-emergence application, SETFA (100=total damage to plant; 0=no damage to plant)): 20%; pest or weed control at 125 g/ha ([7]; Application Rate 125 g/Ha, Method A, read-out: Control of weed species after post-emergence application, AMAPA (100=total damage to plant; 0=no damage to plant)): 30%; pest or weed control at 125 g/ha ([8]; Application Rate 125 g/Ha, Method A, read-out: Control of weed species after post-emergence application, CHEAL (100=total damage to plant; 0=no damage to plant)): 10%; pest or weed control at 125 g/ha ([9]; Application Rate 125 g/Ha, Method A, read-out: Control of weed species after post-emergence application, ELEIN (100=total damage to plant; 0=no damage to plant)): 0%
Cc1cncc(-c2cc[n+](CCS(=O)(=O)[O-])nc2)n1 [Compound A83]	100%	90%	50%	70%	40%	90%	90%	80%	100%										
O=C(O)CC[n+]1ccc(-c2ncc(C(F)(F)F)cc2Cl)cn1 [Compound A197]										20%	10%	0%	0%	10%	0%	100%	10%	10%	
N#Cc1cnc(-c2cc[n+](CCS(=O)(=O)[O-])nc2)cn1 [Compound A191]										20%	30%	10%	30%	30%	20%	100%	30%	30%	
CS(=O)(=O)NC(=O)CC[n+]1ccc(-c2ncccn2)cn1 [Compound A89]	50%	100%	60%	40%	70%	70%	100%	40%	40%										
Cc1cnc(-c2cc[n+](CCS(=O)(=O)[O-])nc2)c(Cl)c1 [Compound A136]	60%	30%	40%	20%	30%	70%	60%	30%	50%										
